ChEMBL document CHEMBL1201862, “PubChem BioAssay data set” (2004)
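Grown in 96-well plates, cells were treated for 48 hours with each compound at five concentrations. Insufficient inhibition: endpoint recorded as highest concentration tested. GI50 marks 50% less growth.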 Active and inactive are the calls of the source. Rule as the data show it: active = GI50 up to about 1.1 µM and inactive = higher.

Columns and labels:
Test in all cases: inhibition of tumour cell growth, NCI panel, 48 h
NCI-H23 = system: NCI-H23
HOP-92 = system: HOP-92
MDA-N = system: MDA-N
A498 = system: A498
CAKI-1 = system: CAKI-1
U-251 = system: U-251
HT-29 = system: HT-29
SNB-19 = system: SNB-19
HCT-116 = system: HCT-116
UACC-62 = system: UACC-62
NCI/ADR-RES = system: NCI/ADR-RES
Hs-578T = system: Hs-578T
CCRF-CEM = system: CCRF-CEM
XF498 = system: XF498
HOP-18 = system: HOP-18
DMS-114 = system: DMS-114
M19-MEL = system: M19-MEL
LXFL 529 = system: LXFL 529
DMS-273 = system: DMS-273
DLD-1 = system: DLD-1

| SMILES | GI50 (NCI-H23) | GI50 (HOP-92) | GI50 (MDA-N) | GI50 (A498) | GI50 (CAKI-1) | GI50 (U-251) | GI50 (HT-29) | GI50 (SNB-19) | GI50 (HCT-116) | GI50 (UACC-62) | GI50 (NCI/ADR-RES) | GI50 (Hs-578T) | GI50 (CCRF-CEM) | GI50 (XF498) | GI50 (HOP-18) | GI50 (DMS-114) | GI50 (M19-MEL) | GI50 (LXFL 529) | GI50 (DMS-273) | GI50 (DLD-1) |
| --- | --- | --- | --- | --- | --- | --- | --- | --- | --- | --- | --- | --- | --- | --- | --- | --- | --- | --- | --- | --- |
| CC(=O)Nc1ccc2c3c(cc(O)c2c1)N(C(=O)CCCCCC(=O)Nc1ccc2c4c(cc(O)c2c1)N(C(=O)OC(C)(C)C)CC4CCl)CC3CCl (centres undefined) | 0.8 µM (active) | 3.59 µM (inactive) | 1.53 µM (inactive) | 1.64 µM (inactive) | > 100 µM (inactive) | 0.74 µM (active) | 3.15 µM (inactive) | 1.6 µM (inactive) | 1.67 µM (inactive) | 1.39 µM (inactive) | > 100 µM (inactive) | 3.94 µM (inactive) | 0.0995 µM (active) | – | – | – | – | – | – | – |
| COc1ccc(N2C(=O)C3c4[nH]c5c(C)cccc5c4C4CCC(C(C)(C)C)CC4C3C2=O)cc1 (centres undefined) | 4.19 µM (inactive) | – | > 10 µM (inactive) | > 10 µM (inactive) | > 10 µM (inactive) | > 10 µM (inactive) | 2.32 µM (inactive) | > 10 µM (inactive) | 5.01 µM (inactive) | > 10 µM (inactive) | > 10 µM (inactive) | 8.17 µM (inactive) | > 10 µM (inactive) | – | – | – | – | – | – | – |
| Cc1ccc(S(=O)(=O)NCCCSCCO)cc1 | 25.6 µM (inactive) | 36.4 µM (inactive) | 55 µM (inactive) | > 100 µM (inactive) | – | 8.26 µM (inactive) | 33.6 µM (inactive) | 9.04 µM (inactive) | 27.2 µM (inactive) | – | > 100 µM (inactive) | 30.5 µM (inactive) | 33.3 µM (inactive) | – | – | – | – | – | – | – |
| OC12c3ccccc3C1CCCCCCCCCC21OCCCO1 (centres undefined) | > 100 µM (inactive) | – | – | – | – | – | > 100 µM (inactive) | > 100 µM (inactive) | 4.06 µM (inactive) | > 100 µM (inactive) | – | – | > 100 µM (inactive) | > 100 µM (inactive) | > 100 µM (inactive) | > 100 µM (inactive) | > 100 µM (inactive) | > 100 µM (inactive) | > 100 µM (inactive) | > 100 µM (inactive) |
| CN(C)C(=S)/N=c1\ssc(=S)n1Cc1ccco1 | 2.38 µM (inactive) | > 100 µM (inactive) | 0.22 µM (active) | 1.38 µM (inactive) | 2.01 µM (inactive) | 1.15 µM (inactive) | 0.998 µM (active) | 2.9 µM (inactive) | 1.53 µM (inactive) | 0.879 µM (active) | – | 0.31 µM (active) | 0.975 µM (active) | 4.39 µM (inactive) | 82.2 µM (inactive) | 1.99 µM (inactive) | 2.16 µM (inactive) | 3.48 µM (inactive) | 0.587 µM (active) | 2.86 µM (inactive) |
| O=[N+]([O-])c1ccccc1S(=O)(=O)c1ccccc1 | 89.7 µM (inactive) | 80.7 µM (inactive) | – | > 100 µM (inactive) | – | > 100 µM (inactive) | > 100 µM (inactive) | – | > 100 µM (inactive) | 54.7 µM (inactive) | – | – | > 100 µM (inactive) | 0.321 µM (active) | > 100 µM (inactive) | 64 µM (inactive) | 39.4 µM (inactive) | > 100 µM (inactive) | > 100 µM (inactive) | > 100 µM (inactive) |
| COc1ccccc1-c1cc(O)c2ccc(C)nc2n1 | > 100 µM (inactive) | 32.8 µM (inactive) | – | > 100 µM (inactive) | > 100 µM (inactive) | – | 26.6 µM (inactive) | > 100 µM (inactive) | – | > 100 µM (inactive) | > 100 µM (inactive) | > 100 µM (inactive) | > 100 µM (inactive) | – | – | – | – | – | – | – |
| COc1cc(O)c2c(=O)c(O)c(-c3ccc(O)c(O)c3)oc2c1 [RHAMNETIN] | – | 10.5 µM (inactive) | 19.8 µM (inactive) | 3.68 µM (inactive) | 1.09 µM (active) | 4.86 µM (inactive) | 15.9 µM (inactive) | 12.2 µM (inactive) | 14.6 µM (inactive) | 7.91 µM (inactive) | 8.55 µM (inactive) | – | 3.61 µM (inactive) | – | – | – | – | – | – | – |
